Data as given in patent US20230131339A1, “EPI-X4 BASED PEPTIDES AND DERIVATIVES THEREOF” (Universitaet Ulm, priority 2020, published 2023).
Where a SMILES comes first, the peptide text is derived from it. Where no end group is shown, it is not given here. [ ]: non-standard residue; d: D form. The star is where a group is joined. DOTA = O=C(O)CN1CCN(CC(=O)O)CCN(CC(=O)*)CCN(CC(=O)O)CC1; Palmitoyl = CCCCCCCCCCCCCCCC(=O)*

Assays:
[1] = tested on: CXCR4-tropic X4-HIV-1 (NL4-3); format: cell-based
CXCR4 = target: T1, CXCR4 (Homo sapiens, UniProt P61073); assay: Antibody competition assay (12G5-assay) on SupT1 cells; format: binding
T1 construct: endogenous in cells; host or cells: SupT1 cells
Method: Second, the activity was tested by an antibody competition assay (FIG. 2). Values determined by the competition assay represent the potency of a compound to compete with an antibody that specifically binds to the binding pocket (ECL2) of CXCR4. […] To the right of the diagrams, an assignment of the curves to the tested peptides is explained. […] Three independent experiments were carried out for each peptide in each assay. The error bars refer to the standard deviation.
Antibody competition assay. Competition of compounds with antibody binding was performed on SupT1 cells. For that cells were washed in PBS containing 1% FCS and 50,000 cells were then seeded per well in a 96 V-well plate. Buffer was removed and plates were precooled at 4° C. Compounds were diluted in PBS and antibody (clone 12G5, APC labelled) was diluted in PBS containing 1% FCS. The antibody was used at a concentration closed to its determined Kd. 15 μl compounds were then added to the cells and 15 μl antibody immediately afterwards. Plates were incubated at 4° C. in the dark for 2 hours. Afterwards cells were washed twice with PBS containing 1% FCS and fixed with 2% PFA. Antibody binding was analyzed by flow cytometry (FACS CytoFLEX; Beckman Coulter®).

[2] = Functional stability assay in human plasma
Method: Fourth, the stability of peptides in human plasma and whole human blood was tested (FIG. 4). The functional stability of EPI-X4 (SEQ ID NO.: 1) derivatives was screened using a CXCR4 antibody-based screening approach. Peptides were diluted in full human plasma or blood (>99%) and the functional activity was then measured after either 2 hours or 8 hours and compared to a sample that was not incubated in plasma or blood.
In this test, the peptides were incubated in human plasma for a certain time period.
Stability assay. Whole blood was collected from healthy donors in EDTA tubes and directly used or subsequently centrifuged for 15 min at 2,500×g to obtain plasma. Plasma from 6 donors was pooled and stored in aliquots at −80° C. Compounds were 200-fold diluted in human plasma or whole human blood to reach final concentrations of 20 μM. The t=0 sample was immediately taken and stored at −80° C. Plasma/compound or blood/compound mixture was then transferred to 37° C. and shook at 350 rpm. At given time points samples were taken and stored at −80° C.°. For measuring the functional activity of the plasma/peptide samples, the mixtures were thawed and diluted in ice cold PBS. 12G5-APC antibody competition was then performed as described before. For blood/peptide functional stability, samples were thawed and centrifuged at 14,000 rpm to remove cells and debris. The supernatant was then diluted in PBS and 12G5-antibody competition assay was performed. After the 2 hours incubation, the cells were washed and 50 μl of 1-step-Fix/Lyse solution (Thermo Fisher #00-5333-54) was added for 15 minutes at room temperature. Afterwards cells were washed again and analyzed for bound antibody.

[3] = tested on: CXCL12-induced AKT signaling; assay: ERK/AKT signaling assay in SupT1 cells: AKT phosphorylation; format: cell-based; settings: 10 μM
Method: Third, the activity of the claimed EPI-X4 derivatives was tested by the effect on CXCL12/CXCR4-mediated ERK (Extracellular-signal Regulated Kinases) and AKT (a serine/threonine-protein kinase) signaling (FIG. 3). In that assay CXCR4 expressing cells are stimulated with the CXCR4 chemokine-ligand CXCL12, which subsequently leads to phosphorylation of ERK and AKT. Preincubation of cells with CXCR4-antagonists blocks those pathways. […] Two or three independent experiments were carried out in triplicates for each peptide in each assay. The error bars refer to the standard deviation.
ERK/AKT signaling assay. CXCL12 induced ERK and AKT phosphorylation was determined in SupT1 cells. For this, 100,000 cells were seeded per well in a 96-V well plate in 100 μl medium supplemented with 1% FCS. Cells were incubated for 2 hours at 37° C. before 5 μl of compounds were added. After 15 min incubation at 37° C. cells were stimulated by adding 5 μl CXCL12 diluted in PBS to reach a final concentration of 100 ng/ml. Cells were further incubated for 2 min before the reaction was stopped by adding 20 μl of 10% PFA. Cells were fixed for 15 min at 4° C. before PFA was removed and cells permeabilized by adding 100 μl ice cold methanol. After 15 min at 4° C. the methanol was removed, cells were washed and 30 μl primary antibody was added (phospho-p44/42 MAPK (Erk1) (Tyr204)/(Erk2) (Tyr187) (D1H6G) mouse mAb #5726; phosphor-Akt (Ser473) (193H12) rabbit mAb #4058 Cell Signaling) for 1 hour at 4° C. After the antibody was removed and cells were washed secondary antibody was added for 30 min. Cells were washed afterwards and subsequently analyzed by flow cytometry.

T1 sequence (P61073 whole entry): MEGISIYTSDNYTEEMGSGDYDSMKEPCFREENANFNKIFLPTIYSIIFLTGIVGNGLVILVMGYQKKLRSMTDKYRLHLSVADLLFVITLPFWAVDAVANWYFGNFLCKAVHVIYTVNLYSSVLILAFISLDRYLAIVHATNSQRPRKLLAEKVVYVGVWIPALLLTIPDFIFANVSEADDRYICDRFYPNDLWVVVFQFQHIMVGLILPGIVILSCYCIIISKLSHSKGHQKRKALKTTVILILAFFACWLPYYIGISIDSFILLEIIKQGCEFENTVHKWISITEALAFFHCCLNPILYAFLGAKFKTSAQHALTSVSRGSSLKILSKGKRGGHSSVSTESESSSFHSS

Row | Molecule | anti-HIV-1 activity (in words) [1] | antibody competition / binding to CXCR4 (in words) (CXCR4) | also measured
1 | JM #206: JM #21 with DOTA conjugated via an additional lysine coupled to the C-terminal amino acid of the peptide (ILRWSRKLPCVSK(DOTA)) | suppressed HIV-1 infection with similar potency as the non-conjugated peptide | displaced the antibody as efficiently as the non-conjugated JM #21 | 
2 | CCCCCCCCCCCCCCCC(=O)NCCCC[C@H](NC(=O)[C@H](CCCCN)NC(=O)[C@H](CO)NC(=O)[C@H](Cc1c[nH]c2ccccc12)NC(=O)[C@H](CCCNC(=N)N)NC(=O)[C@@H](NC(=O)[C@@H](N)[C@@H](C)CC)C(C)C)C(=O)N[C@H](C(=O)N1CCC[C@H]1C(N)=O)C(C)C [JM #167, IVRWSKK(Pal)VP-NH2] (H-IVRWSKK(Palmitoyl)VP-NH2) |  |  | IC50 (CXCR4): 2 nM
3 | CSCC[C@H](NC(=O)[C@H](N)CC(C)C)C(=O)N[C@@H](CCCNC(=N)N)C(=O)N[C@@H](Cc1c[nH]c2ccccc12)C(=O)N[C@@H](CO)C(=O)N[C@@H](CCCNC(=N)N)C(=O)N[C@@H](CCCCN)C(=O)N[C@@H](CCSC)C(=O)N1CCC[C@H]1C(=O)N[C@@H](CS)C(=O)N[C@H](C(=O)N[C@@H](CO)C(=O)O)C(C)C [JM #36] (H-[dL]MRWSRKMPCVS-OH; C-terminus assumed) |  |  | remaining (relative) activity after 2 hours of plasma incubation ([2]; human plasma): 85%; remaining (relative) activity after 8 hours of plasma incubation ([2]; human plasma, 8 hours): 81%
4 | SC024: PEG-coupled peptide JM #21, average molecular mass 20 kDa (ILRWSRKLPCVS; also: coupled to PEG 20 kDa, site not given here) | comparable to the state of the art CXCR4-antagonist AMD3100 and JM #21 |  | remaining (relative) activity after 8 hours of plasma incubation ([2]; human, plasma, 8 h): 30%
5 | SC029: PEG 20 kDa telechelic peptide conjugate, JM #21 copies coupled to different ends of the polymer (ILRWSRKLPCVS; also: PEG 20 kDa conjugate, peptide copies at both polymer ends, site not given here) | comparable to the state of the art CXCR4-antagonist AMD3100 and JM #21 |  | remaining (relative) activity after 8 hours of plasma incubation ([2]; human, plasma, 8 h): 38%
6 | CCCCCCCCCCCCCCCC(=O)NCCCC[C@H](NC(=O)[C@H](CCCNC(=N)N)NC(=O)[C@H](CO)NC(=O)[C@H](Cc1c[nH]c2ccccc12)NC(=O)[C@H](CCCNC(=N)N)NC(=O)[C@H](CCSC)NC(=O)[C@H](N)CC(C)C)C(=O)N[C@@H](CCSC)C(=O)N1CCC[C@H]1C(N)=O [JM #178, d-LMRWSRK(Pal)MP-NH2] (H-[dL]MRWSRK(Palmitoyl)MP-NH2; N-terminus assumed) | strongly increased anti-HIV-1 activity |  | IC50 (CXCR4): 2 nM
7 | SC037: PVP-coupled peptide JM #21, average molecular mass 20 kDa (ILRWSRKLPCVS; also: PVP-coupled, average 20 kDa) | comparable activity as JM #21 | comparable activity as JM #21 | 
8 | SC066: PEG-coupled JM #21, two peptide copies on one end of PEG, average molecular mass 20 kDa (ILRWSRKLPCVS; also: PEG-coupled, two peptide copies on one end, average 20 kDa) | comparable to the state of the art CXCR4-antagonist AMD3100 and JM #21 | even higher activity than JM #21 | 
9 | SC042: PVA-coupled peptide JM #21, average molecular mass 20 kDa (ILRWSRKLPCVS; also: PVA-coupled, average 20 kDa) | comparable activity as JM #21 | comparable activity as JM #21 | 
10 | SC033: PEG-coupled peptide JM #21, average molecular mass 5 kDa (ILRWSRKLPCVS; also: PEG-coupled, average 5 kDa, attachment site not given here) | comparable to the state of the art CXCR4-antagonist AMD3100 and JM #21 |  | remaining (relative) activity after 8 hours of plasma incubation ([2]; human, plasma, 8 h): 72%
11 | c1cc(CN2CCCNCCNCCCNCC2)ccc1CN1CCCNCCNCCCNCC1 [AMD3100, reference compound] |  |  | reduction of CXCL12-induced AKT signaling [3]: about 60%
12 | CC[C@@H](C)[C@@H](N)C(=O)N[C@@H](CC(C)C)C(=O)N[C@@H](CCCNC(=N)N)C(=O)N[C@@H](Cc1c[nH]c2ccccc12)C(=O)N[C@@H](CO)C(=O)N[C@@H](CCCNC(=N)N)C(=O)N[C@@H](CCCCN)C(=O)N[C@@H](CC(C)C)C(=O)N1CCC[C@H]1C(N)=O [JM #174] (H-[dI]LRWSRKLP-NH2) |  |  | remaining (relative) activity after 8 hours of plasma incubation ([2]; human plasma, 8 hours): 100%
13 | CSCC[C@@H](N)C(=O)N[C@@H](CC(C)C)C(=O)N[C@@H](CCCNC(=N)N)C(=O)N[C@@H](Cc1c[nH]c2ccccc12)C(=O)N[C@@H](CO)C(=O)N[C@@H](CCCNC(=N)N)C(=O)N[C@@H](CCCCN)C(=O)N[C@@H](CCSC)C(=O)N1CCC[C@H]1C(=O)N[C@@H](CS)C(=O)N[C@H](C(=O)N[C@@H](CO)C(=O)O)C(C)C [JM #28] (H-[dM]LRWSRKMPCVS-OH; C-terminus assumed) |  |  | IC50 ([1]; CXCR4-tropic X4- (NL4-3)): 246 nM; remaining (relative) activity after 2 hours of plasma incubation ([2]; human plasma): 96%; remaining (relative) activity after 8 hours of plasma incubation ([2]; human plasma, 8 hours): 77%
14 | CC(C)C[C@H](NC(=O)[C@@H](NC(=O)[C@@H]1CCCN1C(=O)[C@@H](NC(=O)[C@H](CO)NC(=O)[C@@H](NC(=O)[C@H](CCC(N)=O)NC(=O)[C@@H]1CCCN1C(=O)[C@@H](NC(=O)[C@H](CCCCN)NC(=O)[C@H](CCCCN)NC(=O)[C@@H](NC(=O)[C@H](Cc1ccc(O)cc1)NC(=O)[C@H](CCCNC(=N)N)NC(=O)[C@@H](NC(=O)[C@@H](N)CC(C)C)C(C)C)[C@@H](C)O)C(C)C)C(C)C)[C@@H](C)O)[C@@H](C)O)C(=O)O [EPI-X4] (H-LVRYTKKVPQVSTPTL-OH; N-terminus and C-terminus assumed) |  |  | half-life at 20 μM ([2]; human, plasma): 17 min; reduction of CXCL12-induced AKT signaling [3]: about 40%
15 | SC001: DSPE-coupled derivative (via PEG), one peptide copy (ILRWSRKLPCVS; also: DSPE conjugate via PEG, one peptide copy, site not given here) | higher activity than cholesterol-coupled SC043 | higher activity than cholesterol-coupled SC043 | 
16 | JM #207: JM #122 with DOTA conjugated via an additional lysine coupled to the C-terminal amino acid of the peptide (ILRWSRKLPSVSK(DOTA)) | suppressed HIV-1 infection with similar potency as the non-conjugated peptide | displaced the antibody as efficiently as the non-conjugated JM #21 | 
17 | SC069: DSPE-coupled derivative (via PEG), two peptide copies on one end (ILRWSRKLPCVS; also: DSPE-coupled via PEG, two peptide copies on one end) | higher activity than cholesterol-coupled SC043 | higher activity than cholesterol-coupled SC043 | 
